# Where two headings read alike, the source gives them in different places.
# Columns and labels:
# soybean = assay: Test C pre-/postemergence herbicide test; format: in vivo, Glycine max
# Summary of the method: (§1)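 Two application timings ran in parallel with identically formulated test chemicals (non-phytotoxic solvent, surfactant included): spray on seeded loam–sand soil, and spray on emerged plants 2 to 18 cm high. Evaluation at 13 to 15 days compared each species with controls, rated from 0 up to 100.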
# corn = assay: Test C pre-/postemergence herbicide test; format: in vivo, Zea mays
# Description: (§2) Seeds of plant species selected from blackgrass (Alopecurus myosuroides), ryegrass, Italian (Italian ryegrass, Lolium multiflorum), wheat (winter wheat, Triticum aestivum), galium (catchweed bedstraw, Galium aparine), corn (Zea mays), crabgrass, large (large crabgrass, Digitaria sanguinalis), foxtail, giant (giant foxtail, Setaria faberii), johnsongrass (Sorghum halepense), lambsquarters (Chenopodium album), morningglory (Ipomoea coccinea), nutsedge, yellow (yellow nutsedge, Cyperus esculentus), pigweed (Amaranthus retroflexus), ragweed (common ragweed, Ambrosia elatior), soybean (Glycine max), barnyardgrass (Echinochloa crus-galli), oilseed rape (Brassica napus), waterhemp (common waterhemp, Amaranthus rudis), kochia (Kochia scoparia), oat, wild (wild oat, Avena fatua), surinam grass (Brachiaria decumbens), foxtail, green (green foxtail, Setaria viridis), goosegrass (Eleusine indica), bromegrass, downy (downy bromegrass, Bromus tectorum), nightshade (eastern black nightshade, Solanum ptycanthum), cocklebur (common cocklebur, Xanthium strumarium), cupgrass, woolly (woolly cupgrass, Eriochloa villosa), bermudagrass (Cynodon dactylon), sunflower, (common oilseed sunflower, Helianthus annuus), Russian thistle (Salsola kali) and velvetleaf (Abutilon theophrasti) were planted into a blend of loam soil and sand and treated preemergence with test chemicals formulated in a non-phytotoxic solvent mixture which included a surfactant. At the same time, plants selected from these crop and weed species and also barley (winter barley, Hordeum vulgare), […]), chickweed (common chickweed, Stellaria media), deadnettle (henbit deadnettle, Lamium amplexicaule), and canarygrass (littleseed canarygrass, Phalaris minor) were planted in pots containing Redi-Earth® planting medium (Scotts Company, 14111 Scottslawn Road, Marysville, Ohio 43041) comprising spaghnum peat moss, vermiculite, wetting agent and starter nutrients and treated with postemergence applications of test chemicals formulated in the same manner. Plants ranged in height from 2 to 18 cm (1- to 4-leaf stage) for postemergence treatments. Treated plants and controls were maintained in a greenhouse for 13 to 15 days, after which time all species were compared to controls and visually evaluated. Plant response ratings, summarized in Table C, are based on a scale of 0 to 100 where 0 is no effect and 100 is complete control. A dash (-) response means no test result.
# nutsedge, yellow = assay: Test C pre-/postemergence herbicide test; format: in vivo, Cyperus esculentus
# Description: as §2
# pigweed = assay: Test C pre-/postemergence herbicide test; format: in vivo, Amaranthus retroflexus
# Summary of the method: as §1
# crabgrass, large = assay: Test C pre-/postemergence herbicide test; format: in vivo, Digitaria sanguinalis
# Summary of the method: as §1
# johnsongrass = assay: Test C pre-/postemergence herbicide test; format: in vivo, Sorghum halepense
# Description: as §2
# lambsquarters = assay: Test C pre-/postemergence herbicide test; format: in vivo, Chenopodium album
# Description: as §2
# barnyardgrass = assay: Test A pre-/postemergence herbicide test; format: in vivo, Echinochloa crus-galli; details: for Barnyardgrass plant response rating: Preemergence, visual rating on 0 to 100 scale (0 no effect, 100 complete control)
# Summary of the method: (§3)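 Directed soil spray to seeded pots (preemergence) or spray onto one- to two-leaf seedlings 2–10 cm tall (postemergence); loam/sand substrate throughout. Evaluated visually after about 10 days against untreated plants, 0 = no effect, 100 = complete control.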
# giant foxtail = assay: Test A pre-/postemergence herbicide test; format: in vivo, Setaria faberii; details: for Foxtail, Giant plant response rating: Preemergence, visual rating on 0 to 100 scale (0 no effect, 100 complete control)
# Summary of the method: as §3
# ryegrass, Italian = assay: Test C pre-/postemergence herbicide test; format: in vivo, Lolium multiflorum
# Description: as §2
# [1] = Postemergence, 31 g ai/ha, scale 0 (no effect) to 100 (complete control)
# [2] = Postemergence, 62 g ai/ha, scale 0 to 100 (0 no effect, 100 complete control)
# [3] = Postemergence, 125 g ai/ha, scale 0 to 100 (0 no effect, 100 complete control)
# [4] = Postemergence, 250 g ai/ha, scale 0 to 100 (0 no effect, 100 complete control)
# [5] = Preemergence, 31 g ai/ha, scale 0 to 100, 0 is no effect and 100 is complete control
# [6] = Preemergence, 62 g ai/ha, scale 0 to 100
# [7] = Preemergence, 125 g ai/ha, scale 0 to 100 (0 no effect, 100 complete control)
# [8] = Postemergence, 125 g ai/ha, 0 to 100 scale, 0 no effect, 100 complete control
# [9] = Postemergence, 500 g ai/ha, 0 to 100 scale (0 no effect, 100 complete control)
# [10] = Preemergence, 31 g ai/ha, scale 0 to 100 (0 no effect, 100 complete control)
# [11] = Preemergence, 250 g ai/ha, scale 0 to 100 (0 no effect, 100 complete control)
smiles,measurement,setting,value
O=C1NCC(c2ccc(F)c(F)c2)C1C(=O)Nc1cccc(F)c1F (racemic) [Compound 101],"Plant response rating, Soybean",soybean; [1],0
same,"Plant response rating, Soybean",soybean; [2],0
same,"Plant response rating, Soybean",soybean; [3],5
same,"Plant response rating, Soybean",soybean; [4],5
same,Soybean plant response rating,soybean; [5],0
same,"Plant response rating, Soybean",soybean; [6],0
same,"Plant response rating, Soybean",soybean; [7],0
same,"Plant response rating (scale of 0 to 100), Soybean","soybean; Preemergence, 250 g ai/ha",10
same,"Plant response rating, Corn",corn; [1],0
same,"Plant response rating, Corn",corn; [2],0
same,"Plant response rating, Corn",corn; [3],0
same,"Plant response rating, Corn",corn; [4],0
same,Corn plant response rating,corn; [5],0
same,"Plant response rating, Corn",corn; [6],0
same,"Plant response rating, Corn",corn; [7],5
same,"Plant response rating (scale of 0 to 100), Corn","corn; Preemergence, 250 g ai/ha",65
same,"Plant response rating, Nutsedge, Yellow","nutsedge, yellow; [1]",0
same,"Plant response rating, Nutsedge, Yellow","nutsedge, yellow; [2]",0
same,"Plant response rating, Nutsedge, Yellow","nutsedge, yellow; [3]",0
same,"Plant response rating, Nutsedge, Yellow","nutsedge, yellow; [4]",5
same,"Nutsedge, Yellow plant response rating","nutsedge, yellow; [5]",0
same,"Plant response rating, Nutsedge, Yellow","nutsedge, yellow; [6]",0
same,"Plant response rating, Nutsedge, Yellow","nutsedge, yellow; [7]",0
same,"Plant response rating (scale of 0 to 100), Nutsedge, Yellow","nutsedge, yellow; Preemergence, 250 g ai/ha",0
same,"Plant response rating, Pigweed",pigweed; [1],0
same,"Plant response rating, Pigweed",pigweed; [2],10
same,"Plant response rating, Pigweed",pigweed; [3],15
same,"Plant response rating, Pigweed",pigweed; [4],45
same,Pigweed plant response rating,pigweed; [5],0
same,"Plant response rating, Pigweed",pigweed; [6],0
same,"Plant response rating, Pigweed",pigweed; [7],55
same,"Plant response rating (scale of 0 to 100), Pigweed","pigweed; Preemergence, 250 g ai/ha",85
same,"Plant response rating, Crabgrass, Large","crabgrass, large; [1]",25
same,"Plant response rating, Crabgrass, Large","crabgrass, large; [2]",50
same,"Plant response rating, Crabgrass, Large","crabgrass, large; [3]",80
same,"Plant response rating, Crabgrass, Large","crabgrass, large; [4]",85
same,"Crabgrass, Large plant response rating","crabgrass, large; [5]",95
same,"Plant response rating, Crabgrass, Large","crabgrass, large; [6]",98
same,"Plant response rating, Crabgrass, Large","crabgrass, large; [7]",98
same,"Plant response rating (scale of 0 to 100), Crabgrass, Large","crabgrass, large; Preemergence, 250 g ai/ha",100
same,"Plant response rating, Johnsongrass",johnsongrass; [1],0
same,"Plant response rating, Johnsongrass",johnsongrass; [2],0
same,"Plant response rating, Johnsongrass",johnsongrass; [3],0
same,"Plant response rating, Johnsongrass",johnsongrass; [4],0
same,Johnsongrass plant response rating,johnsongrass; [5],0
same,"Plant response rating, Johnsongrass",johnsongrass; [6],15
same,"Plant response rating, Johnsongrass",johnsongrass; [7],55
same,"Plant response rating (scale of 0 to 100), Johnsongrass","johnsongrass; Preemergence, 250 g ai/ha",75
same,"Plant response rating, Lambsquarters",lambsquarters; [1],10
same,"Plant response rating, Lambsquarters",lambsquarters; [2],25
same,"Plant response rating, Lambsquarters",lambsquarters; [3],35
same,"Plant response rating, Lambsquarters",lambsquarters; [4],70
same,Lambsquarters plant response rating,lambsquarters; [5],30
same,"Plant response rating, Lambsquarters",lambsquarters; [6],85
same,"Plant response rating, Lambsquarters",lambsquarters; [7],90
same,"Plant response rating (scale of 0 to 100), Lambsquarters","lambsquarters; Preemergence, 250 g ai/ha",90
same,"Plant response rating, Barnyardgrass",barnyardgrass; [8],80
same,"Plant response rating, Barnyardgrass",barnyardgrass; [9],90
same,Barnyardgrass plant response rating,barnyardgrass; 125 g ai/ha,90
same,"Plant response rating, Barnyardgrass","barnyardgrass; preemergence, 500 g ai/ha, 0 to 100 scale (0 no effect, 100 complete control)",90
same,"Plant response rating, Foxtail, Giant",giant foxtail; [8],80
same,"Plant response rating, Foxtail, Giant",giant foxtail; [9],90
same,"Foxtail, Giant plant response rating",giant foxtail; 125 g ai/ha,90
same,"Plant response rating, Foxtail, Giant","giant foxtail; preemergence, 500 g ai/ha, 0 to 100 scale",90
same,"Plant response rating, Ryegrass, Italian","ryegrass, Italian; [1]",0
same,"Plant response rating, Ryegrass, Italian","ryegrass, Italian; [2]",0
same,"Plant response rating, Ryegrass, Italian","ryegrass, Italian; [3]",0
same,"Plant response rating, Ryegrass, Italian","ryegrass, Italian; [4]",0
same,"Ryegrass, Italian plant response rating","ryegrass, Italian; [5]",30
same,"Plant response rating, Ryegrass, Italian","ryegrass, Italian; [6]",15
same,"Plant response rating, Ryegrass, Italian","ryegrass, Italian; [7]",30
same,"Plant response rating (scale of 0 to 100), Ryegrass, Italian","ryegrass, Italian; Preemergence, 250 g ai/ha",50
"O=C1NCCC1C(=O)N(c1ccc(F)c(F)c1)c1ccccc1F (stereo not shown) [Compound 5, N-(3,4-difluorophenyl)-N-(2-fluorophenyl)-2-oxo-3-pyrrolidinecarboxamide]","Plant response rating, Soybean",soybean; [6],0
same,"Plant response rating, Soybean",soybean; [7],0
same,"Plant response rating, Corn",corn; [6],0
same,"Plant response rating, Corn",corn; [7],0
same,Corn plant response rating,corn; [10],0
same,"Plant response rating, Corn",corn; [11],0
same,"Plant response rating, Nutsedge, Yellow","nutsedge, yellow; [6]",0
same,"Plant response rating, Nutsedge, Yellow","nutsedge, yellow; [7]",0
same,"Plant response rating, Pigweed",pigweed; [6],0
same,"Plant response rating, Pigweed",pigweed; [7],0
same,"Plant response rating, Crabgrass, Large","crabgrass, large; [6]",100
same,"Plant response rating, Crabgrass, Large","crabgrass, large; [7]",100
same,"Crabgrass, Large plant response rating","crabgrass, large; [10]",100
same,"Plant response rating, Crabgrass, Large","crabgrass, large; [11]",100
same,"Plant response rating, Johnsongrass",johnsongrass; [6],0
same,"Plant response rating, Johnsongrass",johnsongrass; [7],0
same,"Plant response rating, Lambsquarters",lambsquarters; [6],95
same,"Plant response rating, Lambsquarters",lambsquarters; [7],95
same,pest or weed control at 125 g/ha,"barnyardgrass; Echinochloa crus-galli, post-emergence, 240 h, Postemergence, 125 g ai/ha, 0 to 100 scale, 0 no effect, 100 complete control, read-out: Plant response rating, Barnyardgrass",60%
same,pest or weed control at 500 g/ha,"barnyardgrass; Echinochloa crus-galli, post-emergence, 240 h, Postemergence, 500 g ai/ha, 0 to 100 scale (0 no effect, 100 complete control), read-out: Plant response rating, Barnyardgrass",90%
same,pest or weed control at 500 g/ha,"barnyardgrass; Echinochloa crus-galli, pre-emergence, 240 h, preemergence, 500 g ai/ha, 0 to 100 scale (0 no effect, 100 complete control), read-out: Plant response rating, Barnyardgrass",90%
same,Barnyardgrass plant response rating,barnyardgrass; 125 g ai/ha,70
same,"Foxtail, Giant plant response rating",giant foxtail; 125 g ai/ha,90
same,pest or weed control at 125 g/ha,"giant foxtail; Setaria faberi, post-emergence, 240 h, Postemergence, 125 g ai/ha, 0 to 100 scale, 0 no effect, 100 complete control, read-out: Plant response rating, Foxtail, Giant",80%
same,pest or weed control at 500 g/ha,"giant foxtail; Setaria faberi, post-emergence, 240 h, Postemergence, 500 g ai/ha, 0 to 100 scale (0 no effect, 100 complete control), read-out: Plant response rating, Foxtail, Giant",80%
same,pest or weed control at 500 g/ha,"giant foxtail; Setaria faberi, pre-emergence, 240 h, preemergence, 500 g ai/ha, 0 to 100 scale, read-out: Plant response rating, Foxtail, Giant",100%
same,"Plant response rating, Ryegrass, Italian","ryegrass, Italian; [6]",0
same,"Plant response rating, Ryegrass, Italian","ryegrass, Italian; [7]",0

# From US10294202B2, “Pyrrolidinones as herbicides” (FMC Corporation, priority 2013, dated 2019)
